Data: ChEMBL document CHEMBL4000174, “Synthesis and antitumor activity of novel substituted uracil-1'(N)-acetic acid ester derivatives of 20(S)-camptothecins” (Eur J Med Chem, 2017)

How the values were obtained:
Bel-7402 [1] = assay: Antiproliferative activity against human Bel7402 cells after 96 hrs by MTT assay; format: functional, cell-based; settings: Bel-7402, 96 h
BGC-823 [2] = assay: Antiproliferative activity against human BGC823 cells after 96 hrs by MTT assay; format: functional, cell-based; settings: BGC-823, 96 h
A2780 = assay: Antiproliferative activity against human A2780 cells after 96 hrs by MTT assay; format: functional, cell-based; settings: A2780, 96 h
Mus musculus [3] = assay: Toxicity in Kunming mouse implanted with mouse H22 cells assessed as body weight at 40 mg/kg, ip administered on day 1 and day 5 (reference value: 32.5 g); format: organism-based; settings: in vivo
H22 [4] = assay: Antitumor activity against mouse H22 cells implanted in Kunming mouse assessed as tumor growth inhibition at 100 mg/kg, ip administered once relative to control; format: functional; settings: read-out: TGI
H22 [5] = assay: Antitumor activity against mouse H22 cells implanted in Kunming mouse assessed as tumor growth inhibition at 60 mg/kg, ip administered twice relative to control; format: functional; settings: read-out: TGI
BGC-823 [6] = assay: Antitumor activity against human BGC823 cells xenografted in BALB/c nude mouse assessed as tumor growth inhibition at 60 mg/kg, ip administered once in a week for two weeks starting from 6 days post tumor transplantation measured 27 to 30 days post tumor transplantation relative to control; format: functional; settings: BGC-823, ip, read-out: TGI
BGC-823 [7] = assay: Antitumor activity against human BGC823 cells xenografted in BALB/c nude mouse assessed as tumor growth inhibition at 30 mg/kg, ip administered once in a week for two weeks starting from 6 days post tumor transplantation measured 27 to 30 days post tumor transplantation relative to control; format: functional; settings: BGC-823, ip, read-out: TGI
A549 [8] = assay: Induction of apoptosis in human A549 cells assessed as necrotic cells at 8 nM after 24 hrs by Annexin V-FITC/propidium iodide staining based flow cytometry (reference value: 7.62%); format: functional
A549 [9] = assay: Cell cycle arrest in human A549 cells assessed as accumulation at G0/G1 phase at 8 nM after 24 hrs by propidium iodide staining based flow cytometry (reference value: 58.84%); format: functional
A549 [10] = assay: Cell cycle arrest in human A549 cells assessed as accumulation at S phase at 8 nM after 24 hrs by propidium iodide staining based flow cytometry (reference value: 32.80%); format: functional
A549 [11] = assay: Cell cycle arrest in human A549 cells assessed as accumulation at G0/G1 phase at 25 nM after 24 hrs by propidium iodide staining based flow cytometry (reference value: 58.84%); format: functional
A549 [12] = assay: Cell cycle arrest in human A549 cells assessed as accumulation at S phase at 25 nM after 24 hrs by propidium iodide staining based flow cytometry (reference value: 32.80%); format: functional
A549 [13] = assay: Cell cycle arrest in human A549 cells assessed as accumulation at G0/G1 phase at 75 nM after 24 hrs by propidium iodide staining based flow cytometry (reference value: 58.84%); format: functional
A549 [14] = assay: Cell cycle arrest in human A549 cells assessed as accumulation at G2/M phase at 75 nM after 24 hrs by propidium iodide staining based flow cytometry (reference value: 8.36%); format: functional
A549 [15] = assay: Induction of apoptosis in human A549 cells assessed as viable cells at 75 nM after 24 hrs by Annexin V-FITC/propidium iodide staining based flow cytometry (reference value: 89.41%); format: functional; settings: A549, 24 h, read-out: Activity
A549 [16] = assay: Induction of apoptosis in human A549 cells assessed as viable cells at 25 nM after 24 hrs by Annexin V-FITC/propidium iodide staining based flow cytometry (reference value: 89.41%); format: functional; settings: A549, 24 h, read-out: Activity
A549 [17] = assay: Induction of apoptosis in human A549 cells assessed as early apoptotic cells at 25 nM after 24 hrs by Annexin V-FITC/propidium iodide staining based flow cytometry (reference value: 0.50%); format: functional
A549 [18] = assay: Induction of apoptosis in human A549 cells assessed as necrotic cells at 25 nM after 24 hrs by Annexin V-FITC/propidium iodide staining based flow cytometry (reference value: 7.62%); format: functional
A549 [19] = assay: Induction of apoptosis in human A549 cells assessed as cell shrinkage after 24 hrs by phase contrast microscopy; format: functional, cell-based
Mus musculus [20] = assay: Toxicity in BALB/c nude mouse xenografted with human Bel7402 cells assessed as body weight at 60 mg/kg, ip aadministered once in a week for two weeks starting from 6 days post tumor transplantation measured every 3 days for 21 days (reference value: 14.5 g); format: organism-based; settings: in vivo, 504 h
Mus musculus [21] = assay: Toxicity in Kunming mouse implanted with mouse H22 cells assessed as body weight at 100 mg/kg, ip administered once (reference value: 31.1 g); format: organism-based; settings: in vivo
Mus musculus [22] = assay: Toxicity in Kunming mouse implanted with mouse H22 cells assessed as body weight at 60 mg/kg, ip administered twice (reference value: 31.1 g); format: organism-based; settings: in vivo
Mus musculus [23] = assay: Toxicity in BALB/c nude mouse xenografted with human Bel7402 cells assessed as survival at 60 mg/kg, ip administered once in a week for two weeks starting from 6 days post tumor transplantation measured every 3 days for 21 days; format: organism-based; settings: in vivo, 504 h
Mus musculus [24] = assay: Toxicity in BALB/c nude mouse xenografted with human BGC823 cells assessed as mouse survival at 60 mg/kg, ip administered once in a week for two weeks starting from 6 days post tumor transplantation; format: organism-based; settings: in vivo, 144 h
Bel-7402 [25] = assay: Antitumor activity against human Bel7402 cells xenografted in BALB/c nude mouse assessed as tumor volume at 30 mg/kg, ip administered once in a week for two weeks starting from 6 days post tumor transplantation measured 27 to 30 days post tumor transplantation relative to control; format: functional
Mus musculus [26] = assay: Antitumor activity in BALB/c nude mouse xenografted with human Bel7402 cells assessed as tumor volume at 30 mg/kg, ip administered once in a week for two weeks starting from 6 days post tumor transplantation measured every 3 days for 21 days (reference value: 511 mm3); settings: in vivo, 504 h
Mus musculus [27] = assay: Toxicity in BALB/c nude mouse xenografted with human BGC823 cells assessed as tumor volume at 60 mg/kg, ip administered once in a week for two weeks starting from 6 days post tumor transplantation and measured every 3 days during compound dosing for 15 days (reference value: […]); settings: in vivo, 360 h

**Q.** What does the source list for `CCc1c2c(nc3ccccc13)-c1cc3c(c(=O)n1C2)COC(=O)[C@@]3(CC)OC(=O)Cn1cc(F)c(=O)[nH]c1=O`?
**A.** IC50 (Bel-7402 [1]): 14 nM; IC50 (BGC-823 [2]): 32 nM; IC50 (A2780): 147 nM; Activity (Mus musculus [3]): 27.3 g; inhibition in vivo at 100 mg/kg (H22 [4]): 39.1%; inhibition in vivo at 60 mg/kg (H22 [5]): 64.5%; inhibition in vivo at 60 mg/kg (BGC-823 [6]): 96%; inhibition in vivo at 30 mg/kg (BGC-823 [7]): 89.7%; Activity (A549 [8]): 3.74%; Activity (A549 [9]): 32.28%; Activity (A549 [10]): 36.5%; Activity (A549 [11]): 7.09%; Activity (A549 [12]): 21.17%; Activity (A549 [13]): 2.17%; Activity (A549 [14]): 67.07%; viability at 0.075 µM (A549 [15]): 30.6%; viability at 0.025 µM (A549 [16]): 53.4%; Activity (A549 [17]): 10.07%; Activity (A549 [18]): 9.9%; Activity (A549 [19]): Dose-dependent effect; Activity (Mus musculus [20]): Non-Toxic; Activity (Mus musculus [21]): 29.8 g; Activity (Mus musculus [22]): 27.2 g; Activity (Mus musculus [23]): Non-Toxic; Activity (Mus musculus [24]): Non-Toxic; T/C (Bel-7402 [25]): 41.17%; tumor volume (Mus musculus [26]): 231 mm³; tumor volume (Mus musculus [27]): 143 mm³
